Reference: US6914075B2, “Cystine derivative and agent for suppressing activation of inflammatory factors” (Ajinomoto Co., Inc., priority 2001, dated 2005)

Tested on: NF-κB
Experiment: Test of the potency of NF-κB activation suppression (gel shift assay, UVB-irradiated human epidermal cells)
Assay type: cell-based
Conditions: added 18 h before UVB 50 mJ/cm^2, nuclear protein 4 to 5 hours later
Experimental: Test compounds shown in Table 1 were added individually to human epidermal cells at confluency in a culture plate. 18 hours later, the culture broth was exchanged with a phenol red-free culture medium. Using Dermalei M-DMR-80 (manufactured by Toshiba Medical Supplies, Co., Ltd.), the cells were irradiated with an ultraviolet ray (UVB: 50 mJ/cm^2). 4 to 5 hours later, the cells were recovered and the nuclear protein was extracted using a general method. By using a gel shift assay method, the activated NF-κB in the resulting nuclear protein was detected. Determination of NF-κB was conducted based on counting the radioactivity of labeled NF-κB using a bioimaging analyzer BAS2000 (manufactured by Fuji Film Co., Ltd.). The ratio of NF-κB activation suppression by the inventive compounds compared with a test compound was calculated by the following formula (1). Ratio (%) of NF-κB activation suppression=[1-(A1−A3)/(A2−A3)]×100 (1)
A1: radioactivity of NF-κB band with addition of test compound
A2: radioactivity of NF-κB band without addition of test compound
A3: radioactivity of NF-κB band without addition of test compound and without ultraviolet irradiation

**Q.** With CC(=O)N[C@@H](CSSC[C@H](NC(C)=O)C(=O)O)C(=O)O [N,N′-Diacetyl-L-cystine] as the molecule, how does the “Suppression ratio (%) of NF-κB activation” value (“Suppression ratio (%)” below) (test compound 10 mM) read?
**A.** The value was 48%.

**Q.** What about the “Suppression ratio (%)” value (test compound 30 mM) of the same molecule?
**A.** Its value is 67%.

**Q.** For O=C(O)[C@H](CSSC[C@H](NCc1ccccc1O)C(=O)O)NCc1ccccc1O [N,N′-Bis(2-hydroxybenzyl)-L-cystine], which “Suppression ratio (%)” value (test compound 0.1 mM) is on record?
**A.** The value was 41%.

**Q.** And the “Suppression ratio (%)” value (test compound 0.5 mM)?
**A.** The value was 86%.

**Q.** What about the “Suppression ratio (%)” value (test compound 1.0 mM) of the same molecule?
**A.** The value was greater than 100%.

**Q.** What does the source list for O=C(O)[C@H](CO)NCc1ccccc1O [N-(2-Hydroxybenzyl)-L-serine]?
**A.** Suppression ratio (%) of NF-κB activation (test compound 10 mM): 17%; Suppression ratio (%) of NF-κB activation (test compound 30 mM): 34%
